Source: ChEMBL document CHEMBL4507303, “Data for DCP probe TP-004” (2021)

Legend:
[1] = test system: ALK tyrosine kinase receptor (Homo sapiens), Q9UM73 [C1156Y]; conditions: Compound concentration 1000.0 nM
[2] = target: Tyrosine-protein kinase Fgr (Homo sapiens) (UniProt P09769); conditions: Compound concentration 1000.0 nM
[3] = target: Serine/threonine-protein kinase SBK1 (Homo sapiens) (UniProt Q52WX2); conditions: Compound concentration 1000.0 nM
[4] = target: Protein-tyrosine kinase 2-beta (Homo sapiens) (UniProt Q14289); conditions: Compound concentration 1000.0 nM
[5] = target: Serine/threonine-protein kinase 32A (Homo sapiens) (UniProt Q8WU08); conditions: Compound concentration 1000.0 nM
[6] = target: TGF-beta receptor type-2 (Homo sapiens) (UniProt P37173); conditions: Compound concentration 1000.0 nM
TGF-beta receptor type-2 (Homo sapiens), sequence (P37173 whole entry): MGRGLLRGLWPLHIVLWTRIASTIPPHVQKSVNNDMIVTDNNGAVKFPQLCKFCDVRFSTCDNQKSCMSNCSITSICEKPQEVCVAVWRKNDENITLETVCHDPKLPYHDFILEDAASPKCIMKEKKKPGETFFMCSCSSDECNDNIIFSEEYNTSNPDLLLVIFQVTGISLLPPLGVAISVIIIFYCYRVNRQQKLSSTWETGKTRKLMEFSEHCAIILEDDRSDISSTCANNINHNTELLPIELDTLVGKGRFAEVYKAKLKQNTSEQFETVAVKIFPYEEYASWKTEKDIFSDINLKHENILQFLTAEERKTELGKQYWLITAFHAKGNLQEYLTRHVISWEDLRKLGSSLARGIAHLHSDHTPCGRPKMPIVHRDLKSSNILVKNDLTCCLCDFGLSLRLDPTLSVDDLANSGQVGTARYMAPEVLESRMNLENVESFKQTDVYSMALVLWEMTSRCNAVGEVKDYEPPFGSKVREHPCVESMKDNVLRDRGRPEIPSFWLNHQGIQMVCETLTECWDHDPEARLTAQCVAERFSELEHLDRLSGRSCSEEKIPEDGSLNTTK

[7] = target: Muscarinic acetylcholine receptor M5 (Homo sapiens) (UniProt P08912); conditions: Compound concentration 10.0 uM
[8] = target: Serine/threonine-protein kinase MRCK alpha (Homo sapiens) (UniProt Q5VT25); conditions: Compound concentration 1000.0 nM
Serine/threonine-protein kinase MRCK alpha (Homo sapiens), sequence (Q5VT25 whole entry): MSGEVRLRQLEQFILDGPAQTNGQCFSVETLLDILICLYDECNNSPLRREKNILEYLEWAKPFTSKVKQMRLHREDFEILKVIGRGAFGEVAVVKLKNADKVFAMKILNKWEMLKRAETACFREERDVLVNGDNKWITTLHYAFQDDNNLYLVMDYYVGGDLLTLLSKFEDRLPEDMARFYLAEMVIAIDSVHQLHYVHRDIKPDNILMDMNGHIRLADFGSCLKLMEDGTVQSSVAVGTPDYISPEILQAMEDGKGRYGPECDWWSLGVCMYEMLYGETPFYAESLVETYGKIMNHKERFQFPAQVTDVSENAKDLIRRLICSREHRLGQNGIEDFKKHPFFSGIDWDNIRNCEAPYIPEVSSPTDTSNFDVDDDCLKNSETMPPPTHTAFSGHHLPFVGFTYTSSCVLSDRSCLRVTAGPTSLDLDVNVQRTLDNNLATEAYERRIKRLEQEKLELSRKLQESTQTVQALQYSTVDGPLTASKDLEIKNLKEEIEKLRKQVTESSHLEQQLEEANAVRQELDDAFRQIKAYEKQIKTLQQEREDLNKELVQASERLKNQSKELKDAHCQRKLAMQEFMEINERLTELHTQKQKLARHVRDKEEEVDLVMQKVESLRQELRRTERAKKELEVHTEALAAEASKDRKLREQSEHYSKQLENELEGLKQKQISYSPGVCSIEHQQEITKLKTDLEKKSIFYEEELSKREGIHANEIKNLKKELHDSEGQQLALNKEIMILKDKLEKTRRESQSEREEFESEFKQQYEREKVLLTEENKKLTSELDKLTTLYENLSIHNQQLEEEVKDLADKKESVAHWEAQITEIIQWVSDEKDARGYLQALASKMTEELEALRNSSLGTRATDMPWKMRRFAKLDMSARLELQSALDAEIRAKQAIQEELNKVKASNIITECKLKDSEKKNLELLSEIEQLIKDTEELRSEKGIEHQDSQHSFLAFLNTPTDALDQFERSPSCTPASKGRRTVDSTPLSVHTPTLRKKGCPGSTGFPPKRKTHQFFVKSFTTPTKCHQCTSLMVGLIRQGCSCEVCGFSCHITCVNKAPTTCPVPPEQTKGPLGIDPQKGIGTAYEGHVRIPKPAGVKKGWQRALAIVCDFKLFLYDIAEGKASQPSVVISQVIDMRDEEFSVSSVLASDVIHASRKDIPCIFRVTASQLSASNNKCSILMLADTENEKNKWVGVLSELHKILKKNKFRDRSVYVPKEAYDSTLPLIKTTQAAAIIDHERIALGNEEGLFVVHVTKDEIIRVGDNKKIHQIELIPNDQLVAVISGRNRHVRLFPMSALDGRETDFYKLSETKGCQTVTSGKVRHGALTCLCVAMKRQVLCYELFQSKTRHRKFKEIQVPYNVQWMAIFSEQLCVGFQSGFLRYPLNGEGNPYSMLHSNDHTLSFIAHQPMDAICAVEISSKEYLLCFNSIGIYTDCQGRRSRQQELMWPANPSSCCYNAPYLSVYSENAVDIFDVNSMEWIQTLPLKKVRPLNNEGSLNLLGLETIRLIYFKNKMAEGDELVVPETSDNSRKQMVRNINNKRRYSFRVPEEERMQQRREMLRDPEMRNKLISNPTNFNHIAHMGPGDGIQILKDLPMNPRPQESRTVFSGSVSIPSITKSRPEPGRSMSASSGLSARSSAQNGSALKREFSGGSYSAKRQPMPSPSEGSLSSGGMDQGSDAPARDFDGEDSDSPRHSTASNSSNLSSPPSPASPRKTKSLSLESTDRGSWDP

[9] = target: Serine/threonine-protein kinase PknB (Mycobacterium tuberculosis) (UniProt P9WI81); conditions: Compound concentration 1000.0 nM
[10] = test system: Receptor-type tyrosine-protein kinase FLT3 (Homo sapiens), P36888 [UNDEFINED MUTATION]; conditions: Compound concentration 1000.0 nM
Receptor-type tyrosine-protein kinase FLT3 (Homo sapiens), P36888 [UNDEFINED MUTATION], sequence (P36888 whole entry, looked up, change not shown): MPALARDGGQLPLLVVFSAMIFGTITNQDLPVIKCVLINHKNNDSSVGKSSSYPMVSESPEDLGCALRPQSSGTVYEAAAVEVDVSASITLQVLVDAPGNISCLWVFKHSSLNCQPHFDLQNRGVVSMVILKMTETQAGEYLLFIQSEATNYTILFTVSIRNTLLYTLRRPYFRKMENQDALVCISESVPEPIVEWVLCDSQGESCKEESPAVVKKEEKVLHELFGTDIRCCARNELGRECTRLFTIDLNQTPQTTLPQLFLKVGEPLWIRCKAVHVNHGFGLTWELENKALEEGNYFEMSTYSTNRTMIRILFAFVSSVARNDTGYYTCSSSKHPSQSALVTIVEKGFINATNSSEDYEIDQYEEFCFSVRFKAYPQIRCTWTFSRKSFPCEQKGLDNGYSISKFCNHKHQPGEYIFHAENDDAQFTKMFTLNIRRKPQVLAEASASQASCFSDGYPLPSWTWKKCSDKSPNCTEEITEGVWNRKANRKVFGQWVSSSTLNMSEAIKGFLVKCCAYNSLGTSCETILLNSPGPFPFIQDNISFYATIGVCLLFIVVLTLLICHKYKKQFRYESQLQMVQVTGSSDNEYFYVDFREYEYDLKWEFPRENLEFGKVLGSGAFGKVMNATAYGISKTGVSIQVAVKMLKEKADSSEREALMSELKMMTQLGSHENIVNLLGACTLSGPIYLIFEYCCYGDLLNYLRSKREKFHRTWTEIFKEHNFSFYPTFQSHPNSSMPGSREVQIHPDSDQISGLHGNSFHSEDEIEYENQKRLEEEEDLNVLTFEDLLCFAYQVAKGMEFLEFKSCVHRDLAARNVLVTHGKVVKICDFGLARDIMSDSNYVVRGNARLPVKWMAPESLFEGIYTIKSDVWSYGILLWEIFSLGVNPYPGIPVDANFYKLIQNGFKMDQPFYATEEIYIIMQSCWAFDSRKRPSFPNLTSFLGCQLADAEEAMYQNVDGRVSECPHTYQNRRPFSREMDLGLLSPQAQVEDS

[11] = target: Proto-oncogene tyrosine-protein kinase ROS (Homo sapiens) (UniProt P08922); conditions: Compound concentration 1000.0 nM
[12] = target: Histamine H1 receptor (Homo sapiens) (UniProt P35367); conditions: Compound concentration 10.0 uM
Histamine H1 receptor (Homo sapiens), sequence (P35367 whole entry): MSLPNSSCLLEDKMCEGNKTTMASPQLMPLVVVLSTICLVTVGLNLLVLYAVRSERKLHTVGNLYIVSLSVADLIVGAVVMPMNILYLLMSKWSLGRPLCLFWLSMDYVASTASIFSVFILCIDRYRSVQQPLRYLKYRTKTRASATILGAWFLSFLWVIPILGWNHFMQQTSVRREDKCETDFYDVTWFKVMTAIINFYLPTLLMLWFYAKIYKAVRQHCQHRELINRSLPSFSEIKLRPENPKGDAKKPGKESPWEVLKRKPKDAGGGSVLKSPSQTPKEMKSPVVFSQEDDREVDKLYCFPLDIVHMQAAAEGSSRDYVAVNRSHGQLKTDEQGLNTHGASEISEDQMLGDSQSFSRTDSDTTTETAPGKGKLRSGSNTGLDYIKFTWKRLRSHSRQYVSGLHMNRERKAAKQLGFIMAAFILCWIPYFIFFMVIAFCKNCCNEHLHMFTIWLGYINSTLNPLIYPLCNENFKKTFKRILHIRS

[13] = target: Platelet-derived growth factor receptor beta (Homo sapiens) (UniProt P09619); conditions: Compound concentration 1000.0 nM
Platelet-derived growth factor receptor beta (Homo sapiens), sequence (P09619 whole entry): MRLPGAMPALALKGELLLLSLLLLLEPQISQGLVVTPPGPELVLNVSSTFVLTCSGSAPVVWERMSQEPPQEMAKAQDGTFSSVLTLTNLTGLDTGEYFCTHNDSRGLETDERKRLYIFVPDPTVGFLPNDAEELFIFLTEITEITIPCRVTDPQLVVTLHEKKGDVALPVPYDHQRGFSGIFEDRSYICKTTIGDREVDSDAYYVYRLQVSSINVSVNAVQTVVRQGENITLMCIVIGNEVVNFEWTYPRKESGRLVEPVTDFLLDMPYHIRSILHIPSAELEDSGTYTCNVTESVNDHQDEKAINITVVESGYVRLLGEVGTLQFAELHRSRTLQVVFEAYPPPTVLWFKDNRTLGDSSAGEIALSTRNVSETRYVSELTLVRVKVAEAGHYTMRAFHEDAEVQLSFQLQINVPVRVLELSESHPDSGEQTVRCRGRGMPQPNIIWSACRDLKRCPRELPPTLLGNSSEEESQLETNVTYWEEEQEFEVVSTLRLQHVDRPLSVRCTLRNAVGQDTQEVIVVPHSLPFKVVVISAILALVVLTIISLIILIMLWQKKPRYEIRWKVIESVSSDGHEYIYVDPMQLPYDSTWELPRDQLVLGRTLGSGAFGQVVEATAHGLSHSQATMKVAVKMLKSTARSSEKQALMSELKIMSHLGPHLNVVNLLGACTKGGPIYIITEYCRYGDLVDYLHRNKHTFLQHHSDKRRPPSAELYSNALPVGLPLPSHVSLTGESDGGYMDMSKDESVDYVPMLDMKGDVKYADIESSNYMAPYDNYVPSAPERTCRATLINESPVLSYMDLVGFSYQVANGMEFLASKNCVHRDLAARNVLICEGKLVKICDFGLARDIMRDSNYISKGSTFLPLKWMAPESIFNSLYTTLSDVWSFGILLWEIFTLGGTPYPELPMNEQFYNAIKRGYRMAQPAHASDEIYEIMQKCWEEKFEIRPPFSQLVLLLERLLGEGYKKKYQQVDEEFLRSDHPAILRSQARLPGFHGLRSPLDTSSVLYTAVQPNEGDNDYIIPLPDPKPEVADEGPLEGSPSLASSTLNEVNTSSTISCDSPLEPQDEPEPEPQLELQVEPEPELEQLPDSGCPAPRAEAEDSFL

[14] = target: Myotonin-protein kinase (Homo sapiens) (UniProt Q09013); conditions: Compound concentration 1000.0 nM
[15] = target: Glycogen synthase kinase-3 beta (Homo sapiens) (UniProt P49841); conditions: Compound concentration 1000.0 nM
[16] = target: Tyrosine-protein kinase JAK2 (Homo sapiens) (UniProt O60674); conditions: Compound concentration 1000.0 nM
[17] = target: Aurora kinase B (Homo sapiens) (UniProt Q96GD4); conditions: Compound concentration 1000.0 nM
[18] = target: Muscarinic acetylcholine receptor M1 (Homo sapiens) (UniProt P11229); conditions: Compound concentration 10.0 uM
[19] = target: Calcium/calmodulin-dependent protein kinase type 1D (Homo sapiens) (UniProt Q8IU85); conditions: Compound concentration 1000.0 nM
[20] = target: 5-hydroxytryptamine receptor 5A (Homo sapiens) (UniProt P47898); conditions: Compound concentration 10.0 uM

Cc1nc(N2CC[C@@H](O)C2)ncc1-c1cc(C(F)(F)F)cc2[nH]ncc12 [TP-004]
inactive: residual activity [1] 100% | residual activity [2] 100% | residual activity [3] 82% | residual activity [4] 100% | residual activity [5] 85% | residual activity [6] 99% | inhibition [7] 0.643% | residual activity [8] 100% | residual activity [9] 89% | residual activity [10] 69% | residual activity [11] 86% | inhibition [12] 0.239% | residual activity [13] 58% | residual activity [14] 80% | residual activity [15] 65% | residual activity [16] 61% | residual activity [17] 100% | inhibition [18] 1.12% | residual activity [19] 100% | inhibition [20] -2.1%
